The values below come from patent US20240252486A1, “ALGOSTATIC AGENTS FOR PREVENTING TRANSITION FROM ACUTE TO CHRONIC PAIN” (The Regents of the University of California, priority 2021, published 2024).

Series [1] deals with formalin-injected mice. The series can be described thus: Formalin-induced chronic pain-like state (CPLS): persistent hypersensitivity to heat and mechanical stimuli. In kind it is in vivo, mouse. The note with it: for pain chronification (contralateral hyperalgesia): GW7647 10 mg-kg^−1 IP, post-procedural day 2-4; for conversion to CPLS (contralateral hyperalgesia, PFD14): maximally effective dosages on PFD2-4: gabapentin 50 mg-kg^−1 IP, morphine 10 mg-kg^−1 subcutaneous, ketamine 4 mg-kg^−1 IP, ketoprofen 100 mg-kg^−1 IP, WT mice, formalin; for alleviation of the hypersensitive state (contralateral hyperalgesia): mouse, in vivo.

For series [2], the system named is spinal-cord transcription. Kind of series: RNA sequencing and metabolomic analysis of L4-L6 spinal cord. The note with it: GW7647, post-injury. In kind it is in vivo, mouse. As for the experimental part: RNA sequencing and bioinformatics analysis: We extracted total RNA with the RNeasy Mini Kit (Qiagen). Samples with RNA integrity number ≥8.5 were kept for library construction. cDNA synthesis, amplification, library construction, and sequencing were performed at Novogene (Bejing, China) using the Illumina NovaSeq platform with paired-end 150 bp (PE 150) sequencing strategy. Downstream analysis was performed using a combination of programs including STAR, HTseq, Cufflink and Novogene's wrapped scripts. Alignments were parsed using the STAR program and differential expressions were determined using DESeq2/edgeR. Gene Ontology (GO) and Kyoto Encyclopedia of Genes and Genomes (KEGG) enrichment were implemented using the ClusterProfiler.
Metabolomic analysis: Metabolomics analyses were performed at the West Coast Metabolomics Center of the University of California Davis, as described^55. Briefly, frozen lumbar spinal cord (L4-L6) fragments (˜5 mg) were homogenized in Eppendorf tubes (2 ml) for 2 min using metal spheres ([…] diameter) in a MM300 mill (Retsch, Germany). A mixture of isopropanol/acetonitrile/water (3/3/2, vol) was added to the grounded tissue (1 ml per 20 mg), stirred for 10 s and shaken at 4° C. for 5 min. […]

Series [3] has as its system fibrosarcoma-bearing mice. The note with it: cited from earlier work.
The conditions of series [4]: in vivo; cited from earlier work.
For series [5], the system named is DRG neurons co-cultured with fibrosarcoma cells. The note with it: cited from earlier work.
Series [6] deals with PEA levels in diseased tissues of CCI and tumor-bearing mice. The note with it: cited from earlier work.
For the next series, the system named is mice and rats. To be noted: cited from earlier work; for sensory abnormalities caused by carrageenan injection, ultraviolet B-radiation or CCI: mice and rats.
The target of a further series is T1, PPAR-α (Homo sapiens, UniProt Q07869).
T1 sequence (Q07869 1-468): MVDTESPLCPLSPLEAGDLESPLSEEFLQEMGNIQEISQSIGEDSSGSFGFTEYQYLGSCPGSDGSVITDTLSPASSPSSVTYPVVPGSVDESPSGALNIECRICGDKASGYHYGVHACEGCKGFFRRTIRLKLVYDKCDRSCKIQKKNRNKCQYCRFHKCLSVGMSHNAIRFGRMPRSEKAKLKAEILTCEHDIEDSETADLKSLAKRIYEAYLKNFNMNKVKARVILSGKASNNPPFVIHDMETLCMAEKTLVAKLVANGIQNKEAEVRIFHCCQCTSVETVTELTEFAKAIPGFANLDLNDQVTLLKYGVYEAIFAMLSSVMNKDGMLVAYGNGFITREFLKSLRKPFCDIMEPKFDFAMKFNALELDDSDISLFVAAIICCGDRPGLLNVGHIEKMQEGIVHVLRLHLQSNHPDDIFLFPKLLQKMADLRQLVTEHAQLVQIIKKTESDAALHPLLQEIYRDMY
The note with it: activation of PPAR-α by exogenous PEA; cited from earlier work.

For another series, the system named is naïve mice. The series can be described thus: Capsaicin-evoked nocifensive behavior. Format: in vivo, mouse.
The subject of the next series is macrophages. To be noted: cited from earlier work.
Series [7] has as its system male rat model of type-1 diabetes. To be noted: cited from earlier work.
The next series relates to rodents. The note with it: male (but not female) rodents; cited from earlier work.
Series [8] has as its system formalin-injected mice. The series can be described thus: Formalin-induced paw edema. Format: in vivo, mouse. The note with it: pretreatment; ARN16186 10 mg-kg^−1 IP, ARN19702 30 mg-kg^−1 IP; wild-type mice, 1% formalin. As for the experimental part:
Paw edema was measured with a digital caliper (Fisher Scientific, USA) and is expressed as the difference (A paw thickness, mm) between ipsilateral and contralateral paws.

The test system of series [9] is formalin-injected mice. The series can be described thus: Formalin test: acute nocifensive behavior. To be noted: pretreatment; ARN16186 10 mg-kg^−1 IP, ARN19702 30 mg-kg^−1 IP; wild-type mice, 1% formalin.
In the next series the test system is naïve animals. The series can be described thus: Baseline nociceptive thresholds in naïve animals. Format: in vivo, mouse. The note with it: ARN19702 30 mg-kg^−1 IP, ARN16186 10 mg-kg^−1 IP.
The subject of another series is activated leukocytes. The note with it: topical application; cited from earlier work.

Entries after “also recorded” stand apart in the source; their conditions may differ.

Protocol for naïve mice: Capsaicin: Capsaicin or its vehicle was injected into the plantar surface of the left hind paw (20 μl) or left forepaw (10 μl), i.e. contralaterally to the formalin injection site. Nocifensive behavior was videorecorded for 10 min and evaluated under blinded conditions.

On to `CC(C)(Sc1ccc(CCN(CCCCC2CCCCC2)C(=O)NC2CCCCC2)cc1)C(=O)O` [GW7647], for which the “pain chronification (contralateral hyperalgesia)” value in the series with formalin-injected mice [1] (NAAA-overexpressing mice treated with 0.1% formalin) and in the series with formalin-injected mice [1] (wild-type mice treated with 1% formalin) was “stopped” in each case. Besides, the “injury-associated changes in spinal-cord transcription” value in series [2] is “prevented”.

As to `CC(C(=O)O)c1cccc(C(=O)c2ccccc2)c1` (centres unmarked) [ketoprofen], the “conversion to CPLS (contralateral hyperalgesia, PFD14)” value (shortened to “conversion to CPLS”) with formalin-injected mice [1] is reported as “not mimicked; also recorded: failed to stop; also recorded: do not prevent; also recorded: fail to prevent”.

With `C[C@@H]1OC(=O)[C@@H]1NC(=O)OCCCCCc1ccccc1` [ARN077], the “persistent hypersensitivity (CPLS) elicited by formalin” value with formalin-injected mice [1] (post-injury intrathecal infusion, 30 ng, 5 μL, at PFD2 and PFD4, assessed PFD14) is “stopped”. Also, the mechanical hypersensitivity result in [3] was “reduces”. Besides, the “crossing of the blood-brain barrier” value in series [4] is listed as “cannot cross; also recorded: does not cross”. For the same compound, the calcium signaling entry in series [5] is “rapidly normalizes”. For the same compound, the “PEA levels in diseased tissues” value in [6] is given as “restores baseline”. Moreover, the “sensory abnormalities caused by carrageenan injection, ultraviolet B-radiation or CCI” value with mice and rats was “corrects”.

With `NCC1(CC(=O)O)CCCCC1` [gabapentin], in the series with formalin-injected mice [1], the “conversion to CPLS” value is given as “not mimicked; also recorded: failed to stop; also recorded: do not prevent; also recorded: fail to prevent” and the “alleviation of the hypersensitive state (contralateral hyperalgesia)” value was “only temporarily alleviated”.

Regarding `CCCCCCCCCCCCCCCC(=O)NCCO` [PEA, palmitoylethanolamide], the CPLS result in the series on formalin-injected mice [1] (on PFD2-4, PEA 30 mg-kg^−1 subcutaneous, fenofibrate 100 mg-kg^−1 IP) is “blocked”. At PPAR-α, the inflammation entry is listed as “attenuates”, the mitochondrial respiration result is listed as “stimulates” and the pain entry is given as “attenuates”. The “sensory abnormalities caused by carrageenan injection, ultraviolet B-radiation or CCI” value with mice and rats is given as “mimicked”.

As for `CNC1(c2ccccc2Cl)CCCCC1=O` (centres unmarked) [ketamine], the “conversion to CPLS” value with formalin-injected mice [1] is given as “not mimicked; also recorded: failed to stop; also recorded: do not prevent; also recorded: fail to prevent”.

`COc1cc(CNC(=O)CCCC/C=C/C(C)C)ccc1O` [capsaicin]: in the series with naïve mice (forepaw CPS injection, formalin-naïve mice), the “median effective dose (ED50), nocifensive response” value was ~0.1 µg. Besides, the “half-maximal dose, nocifensive response” value in the series on naïve mice (intraplantar hind paw injection) came to 0.1 µg.

For `CN(C)C(=N)N=C(N)N` [metformin], in the series on macrophages, the “macrophage phenotype shift toward glycolysis / trained immunity” value is “stopped”. For the same compound, in series [7], the “therapeutic efficacy in painful peripheral neuropathy” value is “may exhibit therapeutic efficacy”. In the series with rodents, the neuropathic pain result is listed as “prevents”.

For `CCC(=O)NC[C@H](Cc1ccc(OCCc2nc(-c3ccccc3)oc2C)cc1)N/C(C)=C\C(=O)c1ccc(C(F)(F)F)cc1` [GW6471], in the series on formalin-injected mice [1] (wild-type animals pretreated with GW6471 4 mg-kg^−1 IP, 15 min prior to ARN19702), the “loss of the ARN19702 effect on transition to CPLS” value was “replicated”. Further, the “effects of ARN077 on sensory abnormalities in the presence of the PPAR-α antagonist” value in the series with mice and rats (rats) was “prevented”.

For `CN1CC[C@]23c4c5ccc(O)c4O[C@H]2[C@@H](O)C=C[C@H]3[C@H]1C5` [morphine], in the series with formalin-injected mice [1], the “alleviation of the hypersensitive state (contralateral hyperalgesia)” value is given as “only temporarily alleviated”.

With `CCCCc1ccc(OC2C[C@H]3CC[C@@H](C2)N3S(=O)(=O)c2c(C)n[nH]c2C)cc1` (some centres unmarked) [ARN16186], the “paw edema (PFD14)” value with formalin-injected mice [8] is reported as “prevents”. Further, in the series with formalin-injected mice [1] (ARN16186 10 mg-kg^−1 IP once daily PFD1 to PFD3, male mice), the “protective effects of ARN19702 against CPLS (contralateral hyperalgesia)” value is on record as “mimicked”. In addition, in the series on formalin-injected mice [1] (pretreatment of wild-type mice, ARN19702 30 mg-kg^−1 IP, ARN16186 10 mg-kg^−1 IP), the “NAAA-null phenotype (weakened nocifensive response, no inflammation or persistent hypersensitivity after formalin)” value is “recapitulated”. In addition, the “persistent contralateral hyperalgesia (PFD14)” value in the series on formalin-injected mice [1] (pretreatment, ARN16186 10 mg-kg^−1 IP, ARN19702 30 mg-kg^−1 IP, wild-type mice, 1% formalin) is on record as “prevents”. The “nocifensive response to formalin” value with formalin-injected mice [9] is “prevents”. For the same compound, the baseline nociceptive thresholds result in the series on naïve animals is “Neither compound affected”.

As for `O=C(CCc1ccccc1)N[C@H]1COC1=O` [(S)-OOPP], in the series on activated leukocytes, the “PEA levels in activated leukocytes” value is “reinstates normal” and the “inflammatory responses induced by carrageenan or endotoxin” value is given as “blunts”.

Take `NC(=O)c1cccc(-c2cccc(OC(=O)NC3CCCCC3)c2)c1` [URB597]: the “emergence of formalin-induced CPLS (contralateral hyperalgesia and allodynia)” value with formalin-injected mice [1] (URB597 3 mg-kg^−1 IP once daily from PFD3 to PFD5, male mice) is “prevents the emergence”.
